Drawing on ChEMBL document CHEMBL4184305, “Inhibition of histone lysine methyltransferases G9a and GLP by ejection of structural Zn(II)” (Bioorg Med Chem Lett, 2018), this text covers inhibition for 2 molecules.

The source made the active and inactive calls. The rule behind the calls is not given here.

Experiment [1] concerns the target T1, Histone-lysine N-methyltransferase EHMT2 (Homo sapiens) (UniProt Q96KQ7).
T1 sequence (whole entry): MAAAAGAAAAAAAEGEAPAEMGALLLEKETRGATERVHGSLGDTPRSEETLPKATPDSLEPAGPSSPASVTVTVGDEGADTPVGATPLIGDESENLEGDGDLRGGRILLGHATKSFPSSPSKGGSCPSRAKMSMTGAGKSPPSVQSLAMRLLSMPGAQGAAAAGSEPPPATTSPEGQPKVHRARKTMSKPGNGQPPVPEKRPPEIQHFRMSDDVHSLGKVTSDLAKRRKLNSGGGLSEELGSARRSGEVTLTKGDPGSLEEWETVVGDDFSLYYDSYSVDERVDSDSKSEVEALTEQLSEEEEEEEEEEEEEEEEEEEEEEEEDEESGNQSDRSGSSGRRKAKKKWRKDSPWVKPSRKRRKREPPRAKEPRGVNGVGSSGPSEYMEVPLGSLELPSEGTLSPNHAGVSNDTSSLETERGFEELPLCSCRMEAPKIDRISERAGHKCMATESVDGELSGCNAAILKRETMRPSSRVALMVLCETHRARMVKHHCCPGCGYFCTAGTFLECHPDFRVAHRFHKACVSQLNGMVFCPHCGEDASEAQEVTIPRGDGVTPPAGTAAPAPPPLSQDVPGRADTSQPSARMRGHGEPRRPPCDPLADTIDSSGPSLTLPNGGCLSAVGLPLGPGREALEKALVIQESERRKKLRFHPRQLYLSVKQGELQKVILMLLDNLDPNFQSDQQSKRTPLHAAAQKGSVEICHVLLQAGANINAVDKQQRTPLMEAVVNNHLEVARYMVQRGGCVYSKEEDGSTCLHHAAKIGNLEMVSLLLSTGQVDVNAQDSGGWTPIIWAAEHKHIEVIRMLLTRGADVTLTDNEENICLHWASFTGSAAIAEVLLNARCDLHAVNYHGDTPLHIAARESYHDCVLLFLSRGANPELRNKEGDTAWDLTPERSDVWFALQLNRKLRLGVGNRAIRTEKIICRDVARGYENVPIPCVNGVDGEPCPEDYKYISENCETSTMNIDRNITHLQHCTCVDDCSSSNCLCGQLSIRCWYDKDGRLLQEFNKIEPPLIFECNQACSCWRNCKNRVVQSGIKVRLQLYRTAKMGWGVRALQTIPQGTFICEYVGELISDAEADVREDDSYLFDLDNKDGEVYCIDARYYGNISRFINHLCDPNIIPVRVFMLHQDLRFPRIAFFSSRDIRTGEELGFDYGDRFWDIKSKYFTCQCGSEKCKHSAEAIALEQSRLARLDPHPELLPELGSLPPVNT
The experiment in a line: Inhibition of wild type recombinant human histone lysine methyltransferase G9a (913 to 1193 residues) expressed in Escherichia coli Rosetta BL21 DE3 PlysS assessed as zinc ions ejection from Cys4-Zn finger at 2.5 to 100 uM after 500 to 3500 secs by FluoZin-3 based fluorescence assay.

The target in experiment [2] is T1, Histone-lysine N-methyltransferase EHMT2 (Homo sapiens). Briefly: Inhibition of wild type recombinant human histone lysine methyltransferase G9a (913 to 1193 residues) expressed in Escherichia coli Rosetta BL21 DE3 PlysS assessed as zinc ions ejection from Cys4-Zn finger at >50 uM after 1 hr by circular dichroism analysis. (CD spectra are sensitive to the conformation of chiral molecules.)

For experiment [3], the target named is T2, Histone-lysine N-methyltransferase EHMT1 (Homo sapiens) (UniProt Q9H9B1).
T2 sequence (whole entry): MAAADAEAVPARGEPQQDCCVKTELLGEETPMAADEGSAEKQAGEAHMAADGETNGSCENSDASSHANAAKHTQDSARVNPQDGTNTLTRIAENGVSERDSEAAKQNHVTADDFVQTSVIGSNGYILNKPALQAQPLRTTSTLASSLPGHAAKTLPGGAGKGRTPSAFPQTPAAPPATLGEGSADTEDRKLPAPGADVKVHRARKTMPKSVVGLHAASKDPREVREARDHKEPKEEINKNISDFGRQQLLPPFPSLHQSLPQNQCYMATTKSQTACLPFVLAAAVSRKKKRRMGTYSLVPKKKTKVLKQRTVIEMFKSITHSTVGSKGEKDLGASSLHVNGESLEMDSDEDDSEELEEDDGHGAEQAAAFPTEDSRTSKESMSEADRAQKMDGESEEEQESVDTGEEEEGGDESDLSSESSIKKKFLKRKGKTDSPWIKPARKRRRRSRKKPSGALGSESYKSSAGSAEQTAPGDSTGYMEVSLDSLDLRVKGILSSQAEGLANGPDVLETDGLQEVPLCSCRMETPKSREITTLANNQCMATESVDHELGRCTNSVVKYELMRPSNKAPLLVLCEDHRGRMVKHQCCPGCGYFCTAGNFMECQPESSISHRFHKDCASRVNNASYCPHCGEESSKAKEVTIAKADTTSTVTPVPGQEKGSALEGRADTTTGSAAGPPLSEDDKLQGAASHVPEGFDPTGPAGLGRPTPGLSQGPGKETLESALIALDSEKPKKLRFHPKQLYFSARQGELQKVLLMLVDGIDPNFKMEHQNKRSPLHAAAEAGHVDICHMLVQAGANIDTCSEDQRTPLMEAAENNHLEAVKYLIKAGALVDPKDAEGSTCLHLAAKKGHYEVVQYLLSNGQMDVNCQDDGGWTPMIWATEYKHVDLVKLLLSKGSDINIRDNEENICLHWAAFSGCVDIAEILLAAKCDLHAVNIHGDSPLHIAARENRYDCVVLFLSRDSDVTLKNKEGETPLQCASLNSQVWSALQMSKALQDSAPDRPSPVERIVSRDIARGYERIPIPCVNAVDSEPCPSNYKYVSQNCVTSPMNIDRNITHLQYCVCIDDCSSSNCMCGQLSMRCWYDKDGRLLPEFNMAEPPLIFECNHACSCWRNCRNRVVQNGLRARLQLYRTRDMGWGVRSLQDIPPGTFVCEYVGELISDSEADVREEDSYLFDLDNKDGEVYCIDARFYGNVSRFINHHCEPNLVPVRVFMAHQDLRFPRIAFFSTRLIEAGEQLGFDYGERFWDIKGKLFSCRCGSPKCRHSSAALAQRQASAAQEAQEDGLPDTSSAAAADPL
Briefly: Inhibition of wild type recombinant human histone lysine methyltransferase GLP (951 to 1235 residues) expressed in Escherichia coli Rosetta BL21 DE3 PlysS assessed as zinc ions ejection from Cys4-Zn finger at >50 uM after 1 hr by circular dichroism analysis.

Experiment [4] concerns the target T1, Histone-lysine N-methyltransferase EHMT2 (Homo sapiens). Briefly: Inhibition of wild type recombinant human histone lysine methyltransferase G9a (913 to 1193 residues) expressed in Escherichia coli Rosetta BL21 DE3 PlysS assessed as zinc ions ejection from Cys4-Zn finger at 2.5 to 100 uM measured up to 1 min by FluoZin-3 based fluorescence assay.
Experiment [5] shares this target. The experiment in a line: Inhibition of wild type recombinant human histone lysine methyltransferase G9a (913 to 1193 residues) expressed in Escherichia coli Rosetta BL21 DE3 PlysS assessed as zinc ions ejection from Cys4-Zn finger at >25 uM after 1 hr by circular dichroism analysis.

`CCN(CC)C(=S)SSC(=S)N(CC)CC`: the inhibition result in experiment [1], in experiment [2] and in experiment [3] was “Active” throughout.
With `O=c1c2ccccc2[se]n1-c1ccccc1` [EBSELEN], the inhibition entry in experiment [4] and in experiment [5] was “Active” throughout.
